Experimental data reported in US12637461B2, “Compounds for the activation of AMPK” (PFIZER INC., priority 2022, dated 2026).

Target: T1, human AMPK α2β2γ3 (Homo sapiens, UniProt O43741+P54646+Q9UGI9)
T1 construct: expressed in transfected cells; host or cells: HEK293AD cells, MaxCyte bulk electroporation
Test: Primary cellular assay: γ3 associated phospho-Thr172 AMPK detection (custom pAMPK Surefire AlphaLISA) in α2β2γ3 bulk transiently transfected HEK293 cells
Type: cell-based
Conditions: activation of human AMPK α2β2γ3 (γ3 pThr172 AMPK signal) in transiently transfected HEK293 cells, 20 minutes compound incubation; for EC50: geometric mean EC50, read-out: Assay GMean EC50; for Assay GMean Asy. Max (%) / Emax: geometric mean of the asymptotic max; for Emax: 20 min, read-out: Assay GMean Asy. Max (%)
Protocol: Primary Cellular Assay—γ3 Associated Phospho-Thr172 AMPK Detection in α2β2γ3 Bulk Transiently Transfected HEK293 Cells
The cellular potencies of the compounds were evaluated using a custom pAMPK Surefire AlphaLISA designed to assess γ3 associated phospho-Thr172 AMPK and modulation by small molecules in AMPK α2β2γ3 transiently transfected HEK293 cells.
A pAMPK Surefire AlphaLISA (PE-ASLU-PAMPK) assay available through Perkin Elmer was modified to selectively assess γ3 pThr172 AMPK content (as opposed to total pThr172 AMPK) by labeling a γ3 antibody with a CaptSure™ tag and substituting it for the total α1c/α2 AMPK labeled antibodies in the kit. In the modified assay, the overall abundance of γ3 AMPK is recognized by the CaptSure γ3 antibody and the phosphorylated AMPK is recognized by biotinylated pThr172 antibody. Subsequent reactivity with streptavitin donor beads and anti CaptSure conjugated acceptor beads brings the molecules into close proximity. Upon excitation at 680 nm, the donor bead converts ambient oxygen to a more excited singlet state which reacts with the acceptor bead and emits light at 520 to 620 nm. The intensity of the signal is proportional to the level of γ3 associated pThr172 AMPK phosphorylation.
In short, AMPK-α2+β2+γ3 MaxCyte bulk-transfected HEK293AD cells were thawed in growth media (DMEM High glucose+10% FBS) in a collagen-coated T150 flask and the cells were allowed to adhere and grow overnight in a 37° C. incubator. The following day, the cells were harvested and resuspended in plating medium (DMEM Low glucose+10% FBS) at a concentration of 100,000 cells per mL and 50 μL of this cell suspension was added to all wells of a 384-well plate using a Multidrop Combi. The cells were allowed to adhere and grow for 2 days in a 37° C. incubator. On assay day, compounds were diluted in 100% dimethyl sulfoxide (DMSO) in a 11 dose, half log dilution scheme and spotted in the cell plates at 1000× the final concentration. Compound incubations were performed in plating media for 20 minutes. Cells were washed with PBS, lysed and the signal was generated by subsequent additions of RB1 reagent from the kit, 1:1000 CaptSure γ3 labeled antibody in 1× immunoassay buffer, Anti-CaptSure acceptor beads and Streptavitin donor beads at final concentration of […]. The γ3 pThr172 AMPK signal was developed using EnVision™ multilabel reader (Perkin Elmer) using Alphascreen settings. The fluorescence emission was used to calculate the % effect relative to the HPE (30 μM) and ZPE (DMSO). EC50 curves were generated with the ActivityBase software using the XLfit model 205 to determine EC50 and Emax values.
For screening purposes, bulk AMPK-α2+β2+γ3 MaxCyte bulk transfection into HEK293AD cells were generated to support SAR screening as follows.
HEK293AD cells were seeded into 10 flasks at 2.7×10^7 cells per flask. The following day 12 mL of Trypl E dissociation reagent were added to each flask to lift the cells and the cells were then spun at 300×g for 5 minutes. Cells were washed once in MaxCyte EP buffer and then resuspended in MaxCyte EP buffer at 1×10^8 cells per mL. For transfection, 500×10^6 cells in 500 μl MaxCyte EP buffer were placed in a CL1.1 Processing Assembly (electroporation cell) with 1 mg/mL ([…]) of each of the plasmids pcDNA3.1(+)-human AMPK alpha 2, pcDNA3.1(+)-human AMPK beta 2 and pcDNA3.1(+)-human AMPK gamma 3 and the electroporation was carried out on the MaxCyte STX using the HEK293 electroporation protocol. Following electroporation, cells were transferred to a T175 flask containing growth medium (DMEM High glucose+10% FBS) and allowed to recover for 25 minutes, then the cells were resuspended to final volume of 900 mL and distributed into 6XT175 flasks and allowed to adhere and grow overnight in a 37° C. incubator. […]

T1 sequence (P54646 whole entry): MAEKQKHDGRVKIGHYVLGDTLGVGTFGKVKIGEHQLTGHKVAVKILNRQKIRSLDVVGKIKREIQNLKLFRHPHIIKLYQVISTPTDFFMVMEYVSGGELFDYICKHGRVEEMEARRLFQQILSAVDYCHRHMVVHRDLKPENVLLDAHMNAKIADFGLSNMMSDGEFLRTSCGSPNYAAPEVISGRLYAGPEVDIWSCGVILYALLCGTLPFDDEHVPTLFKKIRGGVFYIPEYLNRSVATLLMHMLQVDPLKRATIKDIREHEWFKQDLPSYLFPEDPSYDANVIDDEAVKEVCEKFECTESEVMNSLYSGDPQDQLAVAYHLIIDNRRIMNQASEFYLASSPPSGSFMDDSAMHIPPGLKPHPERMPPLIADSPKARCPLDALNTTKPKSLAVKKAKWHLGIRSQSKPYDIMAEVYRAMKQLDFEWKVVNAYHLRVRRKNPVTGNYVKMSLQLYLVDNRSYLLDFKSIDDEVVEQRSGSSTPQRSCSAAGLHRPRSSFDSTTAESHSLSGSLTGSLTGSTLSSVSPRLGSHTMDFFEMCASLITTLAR
T1 sequence (O43741 whole entry): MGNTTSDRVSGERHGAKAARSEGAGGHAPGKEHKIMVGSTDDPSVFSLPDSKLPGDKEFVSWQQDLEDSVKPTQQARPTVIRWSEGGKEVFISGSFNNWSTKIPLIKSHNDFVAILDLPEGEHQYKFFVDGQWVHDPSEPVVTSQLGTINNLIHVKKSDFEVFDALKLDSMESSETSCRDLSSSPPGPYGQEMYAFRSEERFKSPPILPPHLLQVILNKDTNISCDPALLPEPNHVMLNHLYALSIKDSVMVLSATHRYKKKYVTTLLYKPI
T1 sequence (Q9UGI9 whole entry): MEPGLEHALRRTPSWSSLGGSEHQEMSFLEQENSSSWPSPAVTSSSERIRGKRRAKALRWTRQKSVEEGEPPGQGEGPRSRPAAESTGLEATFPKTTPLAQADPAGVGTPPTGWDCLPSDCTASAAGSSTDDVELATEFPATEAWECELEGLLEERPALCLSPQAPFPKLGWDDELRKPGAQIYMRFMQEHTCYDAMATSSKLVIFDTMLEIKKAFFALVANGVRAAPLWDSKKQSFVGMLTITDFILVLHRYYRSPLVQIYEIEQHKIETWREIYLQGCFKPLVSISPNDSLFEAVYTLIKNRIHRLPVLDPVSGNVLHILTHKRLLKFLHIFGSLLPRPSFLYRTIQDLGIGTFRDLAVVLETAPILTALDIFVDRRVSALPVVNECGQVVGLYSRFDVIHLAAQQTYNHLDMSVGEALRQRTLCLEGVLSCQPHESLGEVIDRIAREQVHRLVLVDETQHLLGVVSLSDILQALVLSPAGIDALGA

Question: Which EC50 does the source give for `Cn1cc(F)c(N2C[C@](C)(c3cccc(Cl)c3F)c3c(cnc(NC4CN(C(=O)C(C)(O)C5CC5)C4)c3F)C2=O)n1` (single isomer, unassigned) [Example 9] here?
Answer: > 55.7 nM

Question: And the “Assay GMean Asy. Max (%)” value?
Answer: 118.8%

Question: `Cn1cc(F)c(N2C[C@](C)(c3cccc(Cl)c3F)c3c(cnc(NC4CN(C(=O)C(C)(O)C5CC5)C4)c3F)C2=O)n1` (single isomer, unassigned) [Example 10] was tested. Which EC50 did it give?
Answer: 21.3 nM

Question: What about the “Assay GMean Asy. Max (%)” value of the same compound?
Answer: 89.6%

Question: `C[C@]1(c2cccc(Cl)c2F)CN(c2ccc([C@H]3COCCN3)cn2)C(=O)c2cnc(NC3CN(C(=O)c4cccnn4)C3)c(F)c21` (single isomer, unassigned) [Example 16] was tested. Which Emax did it give?
Answer: 75.4%

Question: What about the EC50 of the same compound?
Answer: 759 nM

Question: `C[C@]1(c2cccc(Cl)c2F)CN(c2ccc([C@@H]3COCCN3)cn2)C(=O)c2cnc(NC3CN(C(=O)c4cccnn4)C3)c(F)c21` (single isomer, unassigned) [Example 17] was tested. Which Emax did it give?
Answer: 120%

Question: What about the EC50 of the same compound?
Answer: 144 nM

Question: Which results are given for `Cn1cc(F)c(N2CC(C)(c3ccc(F)c(Cl)c3F)c3c(cnc(NC4CN(C(=O)[C@@H]5C[C@@H]5F)C4)c3F)C2=O)n1` (single isomer, unassigned) [Example 23]?
Answer: Emax: 91.4%; EC50: 28.1 nM

Question: For `CN1CCC(C(=O)N2CC[C@@H](Nc3ncc4c(c3F)C(C)(c3cccc(Cl)c3F)CN(c3ncccc3F)C4=O)C2)CC1` (single isomer, unassigned) [Example 24], which Emax is on record?
Answer: 139%

Question: What about the EC50 of the same compound?
Answer: 79.5 nM

Question: `Cn1cc(F)c(N2CC(C)(c3cccc(Cl)c3F)c3c(cnc(N[C@@H]4CCN(C(=O)N5C[C@@H]6C[C@H]5CO6)C4)c3F)C2=O)n1` (single isomer, unassigned) [Example 25] was tested. Which Emax did it give?
Answer: 52.2%

Question: What about the EC50 of the same compound?
Answer: 160 nM

Question: `CC1(c2cccc(Cl)c2F)CN(c2ncccc2F)C(=O)c2cnc(NC3CN(C(=O)CO)C3)nc21` (single isomer, unassigned) [Example 26, 8-(3-Chloro-2-fluorophenyl)-6-(3-fluoropyridin-2-yl)-2-{[1-(hydroxyacetyl)azetidin-3-yl]amino}-8-methyl-7,8-dihydropyrido[4,3-d]pyrimidin-5(6H)-one] was tested. Which Emax did it give?
Answer: 47.6%

Question: And the EC50?
Answer: 183 nM

Question: For `CC1(c2cccc(Cl)c2F)CN(c2ncccc2F)C(=O)c2cnc(NC3CN(C(=O)C4(O)CC4)C3)nc21` (single isomer, unassigned) [Example 27, 8-(3-Chloro-2-fluorophenyl)-6-(3-fluoropyridin-2-yl)-2-{[1-(1-hydroxycyclopropane-1-carbonyl)azetidin-3-yl]amino}-8-methyl-7,8-dihydropyrido[4,3-d]pyrimidin-5(6H)-one], which Emax is on record?
Answer: 174%

Question: And the EC50?
Answer: 177 nM

Question: With `CC1(c2cccc(Cl)c2F)CN(c2ncccc2F)C(=O)c2cnc(NC3CN(C(=O)C4(O)CC4(C)C)C3)nc21` (single isomer, unassigned) [Example 28, 8-(3-Chloro-2-fluorophenyl)-6-(3-fluoropyridin-2-yl)-2-{[1-(1-hydroxy-2,2-dimethylcyclopropane-1-carbonyl)azetidin-3-yl]amino}-8-methyl-7,8-dihydropyrido[4,3-d]pyrimidin-5(6H)-one] as the compound, how does the EC50 read?
Answer: 571 nM

Question: And the “Assay GMean Asy. Max (%)” value?
Answer: 98.9%

Question: What does the source list for `CC1(c2cccc(Cl)c2F)CN(c2ncccc2F)C(=O)c2cnc(NC3CN(C(=O)C4(O)CC4(C)C)C3)nc21` (single isomer, unassigned) [Example 29, 8-(3-Chloro-2-fluorophenyl)-6-(3-fluoropyridin-2-yl)-2-{[1-(1-hydroxy-2,2-dimethylcyclopropane-1-carbonyl)azetidin-3-yl]amino}-8-methyl-7,8-dihydropyrido[4,3-d]pyrimidin-5(6H)-one]?
Answer: EC50: 181 nM; Assay GMean Asy. Max (%): 216%

Question: How did the Emax turn out when `Cn1cc(F)c(N2CC(C)(c3cccc(Cl)c3F)c3nc(NC4CN(C(=O)[C@@H]5C[C@@H]5F)C4)ncc3C2=O)n1` (single isomer, unassigned) [Example 30] was run?
Answer: 178%

Question: And the EC50?
Answer: 740 nM

Question: What does the source list for `CC1(c2cccc(Cl)c2F)CN(c2ccc(N)cn2)C(=O)c2cnc(NC3CN(C(=O)[C@@H]4C[C@@H]4F)C3)nc21` (single isomer, unassigned) [Example 31]?
Answer: Emax: 110%; EC50: 221 nM

Question: For `CC1(c2cccc(Cl)c2F)CN(c2ncccc2F)C(=O)c2cnc(NC3CN(C(=O)N4C[C@H]5C[C@@H]4[C@@H](O)C5)C3)nc21` (single isomer, unassigned) [Example 32], which Emax is on record?
Answer: 173%

Question: And the EC50?
Answer: 219 nM

Question: Which results are given for `CN(C(=O)CN1CC(Nc2ccc3c(c2F)C(C)(c2cccc(Cl)c2F)CN(c2nn(C)cc2F)C3=O)C1)C1CC1` (single isomer, unassigned) [Example 34, 2-(3-{[4-(3-Chloro-2-fluorophenyl)-5-fluoro-2-(4-fluoro-1-methyl-1H-pyrazol-3-yl)-4-methyl-1-oxo-1,2,3,4-tetrahydroisoquinolin-6-yl]amino}azetidin-1-yl)-N-cyclopropyl-N-methylacetamide]?
Answer: Emax: 208%; EC50: 31.7 nM

Question: `CC1(c2cccc(Cl)c2F)CN(c2ccc(CO)cn2)C(=O)c2ccc(NC3CN(C(=O)N4C[C@@H]5C[C@H]4CO5)C3)c(F)c21` (single isomer, unassigned) [Example 37] was tested. Which Emax did it give?
Answer: 163%

Question: And the EC50?
Answer: 19.1 nM

Question: With `CN(C)c1nc(NC2CN(C(=O)C3(O)CC3)C2)nc2c1C(=O)N(c1ncccc1F)CC2(C)c1cccc(Cl)c1F` (single isomer, unassigned) [Example 38, 8-(3-Chloro-2-fluorophenyl)-4-(dimethylamino)-6-(3-fluoropyridin-2-yl)-2-{[1-(1-hydroxycyclopropane-1-carbonyl)azetidin-3-yl]amino}-8-methyl-7,8-dihydropyrido[4,3-d]pyrimidin-5(6H)-one] as the compound, how does the Emax read?
Answer: 217%

Question: And the EC50?
Answer: 146 nM

Question: Which results are given for `Cn1cc(F)c(N2C[C@](C)(c3cccc(Cl)c3F)c3c(cnc(NC4CN(C(=O)C(O)C5CC5)C4)c3F)C2=O)n1` (single isomer, unassigned) [compound 42]?
Answer: Emax: 76.2%; EC50: 59.1 nM

Question: What does the source list for `Cn1cc(F)c(N2C[C@](C)(c3cccc(Cl)c3F)c3c(cnc(NC4CN(C(=O)C(O)C5CC5)C4)c3F)C2=O)n1` (single isomer, unassigned) [compound 43]?
Answer: EC50: 172 nM; Assay GMean Asy. Max (%): 77.4%

Question: `Cn1cc(F)c(N2C[C@](C)(c3cccc(Cl)c3F)c3c(cnc(NC4CN(C(=O)C(O)CC(F)(F)F)C4)c3F)C2=O)n1` (single isomer, unassigned) [compound 44] was tested. Which EC50 did it give?
Answer: 78.1 nM

Question: What about the “Assay GMean Asy. Max (%)” value of the same compound?
Answer: 77.9%

Question: Which results are given for `Cn1cc(F)c(N2C[C@](C)(c3cccc(Cl)c3F)c3c(cnc(NC4CN(C(=O)C(O)CC(F)(F)F)C4)c3F)C2=O)n1` (single isomer, unassigned) [compound 45]?
Answer: EC50: 66.4 nM; Assay GMean Asy. Max (%): 100%

Question: Which Emax does the source give for `COCC(C)(O)C(=O)N1CC(Nc2ncc3c(c2F)C(C)(c2cccc(Cl)c2F)CN(c2nn(C)cc2F)C3=O)C1` (single isomer, unassigned) [compound 46] here?
Answer: 111%

Question: What about the EC50 of the same compound?
Answer: 86.1 nM

Question: With `COCC(C)(O)C(=O)N1CC(Nc2ncc3c(c2F)C(C)(c2cccc(Cl)c2F)CN(c2nn(C)cc2F)C3=O)C1` (single isomer, unassigned) [compound 47] as the compound, how does the EC50 read?
Answer: 264 nM

Question: What about the “Assay GMean Asy. Max (%)” value of the same compound?
Answer: 105%
